Entries after “also recorded” stand apart in the source; their conditions may differ.
Assays:
human CD4+ naive T cells = assay: Th17 polarization of human CD4+ naive T cells (RT-qPCR, ELISA); format: cell-based; conditions: Th17-polarized conditions, 7 days, Bi2 10 μM
Experimental: BCAT1 regulates HIF-1α through mTORC1 activation in human CD4^+ T cells. FIG. 11A relates to ubiquitin-proteasome degradation of HIF1a and inhibitors for each step. In FIG. 11B, CD4+ memory T cells were pretreated with Bi2 (10 μM), CoCl2 (100 μM), VH298 (100 μM) or MG132 (5 μM) for 1 hour and stimulated with anti-CD3/CD28 coated microbeads for 8 hours. Cell lysates were immunoblotted against HIF-1α (n=3 independent experiments). In FIG. 11C, CD4+ memory T cells were stimulated for 24 hours and then treated with CHX (0.2 μg/ml) for the specified time before being obtained. Cell lysates were immunoblotted against HIF-1α (n=3 independent experiments). In FIG. 11D, CD4^+ memory T cells were stimulated for a specified time with or without Bi2 (10 μM). […] Cell viability was analyzed by 7-AAD staining using a flow cytometer (n=3). […] The mRNA levels of genes involved in leucine metabolism were quantified using RT-qPCR (n=3). […] The mRNA expression of the signature genes of Th17 (i-j) or Th1 (k-l) and cytokines was measured by RT-qPCR and ELISA, respectively (n=5-7). […]
Total RNA was prepared using TRIzol reagent (Life Technologies, Grand Island, NY), followed by cDNA synthesis (Promega, Madison, WI), followed by real-time quantitative RT-PCR with a CFX system (Bio-Rad, Hercules, CA) using SensiFAST SYBR® Lo-ROX (Bioline, London. UK). […]

mTORC1 = assay: Phospho-p70-S6K immunoblot (mTORC1 activity) in CD4+ memory T cells; format: cell-based, human; conditions: about 1-2 hours after stimulation
Experimental: Cells were cultured in radioimmunoprecipitation assay (RIPA) buffer (150 mM NaCl, 10 mM Na2HPO4, pH 7.2, 1% Nonidet P-40, 0.5% deoxycholate) containing phenylmethylsulfonyl fluoride (PMSF; Millipore Sigma, Burlington, MA), EDTA, protease and phosphatase inhibitor cocktail (Thermo Fisher Scientific) to extract total protein. Proteins were separated on 8-10% SDS-polyacrylamide gels and blotted onto polyvinylidene difluoride (PVDF) membranes (Bio-Rad, Hercules, CA) followed by 5% BSA in Tris buffered saline (TBS) with 0.1% Tween 20 and blocked for 1 hour. Membranes were cultured overnight with anti-human SLC7A5, anti-BCAT, anti-phospho-p70S6K, anti-p70S6K, anti-HIF-1α (all provided by Cell Signaling Technology, Danvers, MA) primary antibodies at 4° C., followed by culture with HRP-conjugated secondary antibodies for 1 hour at room temperature. Membranes were developed using SuperSignal West Femto Maximum Sensitivity Substrate or SuperSignal West Pico PLUS Chemiluminescent Substrate system (Thermo Fisher Scientific).

[1] = tested on: human CD4+ naive and memory T cells; assay: CFSE dilution proliferation assay; format: cell-based; conditions: anti-CD3/CD28 microbeads; Bi2 10 μM, JPH203 10 μM, LβhL 400 mg/L
Experimental: To analyze T cell proliferative capacity, purified isolated human CD4+ T cells were labeled with 1 μM carboxyfluorescein succinimidyl ester (CFSE; Invitrogen, Waltham, MA, USA) and then stimulated with anti-CD3/CD28 antibody coated microbeads for 4 days at 37° C. Cells were stained with 7AAD (BD Biosciences) for 10 minutes to distinguish dead cells and the extent of CFSE dilution in 7AAD-cells was measured by BD LSRFortessa to analyze proliferative capacity. Antibodies listed in Table 2 and previously known BD LSRFortessa cell analyzers were used.

[2] = tested on: TCR-stimulated human CD4+ memory T cells; assay: Cytokine ELISA of culture supernatants, CD4+ memory T cells; format: cell-based
Experimental: The study protocol was reviewed and approved by the Institutional Review Board (IRB) of Seoul National University Hospital. Peripheral blood was drawn from healthy controls (HC) after obtaining written consent from study participants, and all experiments were performed according to approved guidelines. Peripheral blood mononuclear cells (PBMCs) were isolated from peripheral blood using density gradient centrifugation (Biocoll separation solution; BIOCHROM Inc., Cambridge, UK). Total CD4^+ T cells, naive T cells and memory CD4^+ T-cells were isolated in a negative selection manner from CD14^+ monocyte depleted PBMCs using the MojoSort™ Human Total CD4^+ T-Cells, CD4^+ naive T-cells and CD4^+ memory T-cell isolation kit (BioLegend, San Diego, Calif.). Purified T cells were cultured in RPMI 1640 medium (hereinafter, “complete RPMI 1640”) supplemented with 10% fetal bovine serum (FBS), 1% penicillin/streptomycin, and 1% L-glutamine. Cells were stimulated with anti-CD3/CD28-coated microbeads (1:10 ratio, Dynabeads T-Activator CD3/CD28, Thermo Fisher Scientific, Waltham, MA) in the presence of designated chemical inhibitors or reagents including 2-amino-2-norbornanecarboxylic acid (BCH), JPH203, acetate, MG132, VH298, cobalt chloride (CoCl2), cycloheximid (CHX) (all provided by Sigma-Aldrich, St. Louis, MO), BCAT1 inhibitor 2 (Bi2: provided by Cayman Chemical, Ann Arbor, MI), 3-hydroxy-3-methylbutyric acid (HMB; provided by Thermo Fisher Scientific, Waltham, MA), and L-β-homoleucine (LβhL; provided by Santa Cruz Biotechnology, Heidelberg, Germany). In some experiments, a customized medium depleted of five essential amino acids (leucine, valine, isoleucine, phenylalanine, methionine) was used (Welgene, Gyeongsan, South Korea). All amino acids used (L-leucine, L-valine, L-isoleucine, L-phenylalanine, L-methionine) were purchased from Sigma-Aldrich.
IL-17A and IFN-γ amounts in culture supernatants were quantified using commercially available human ELISA kits (IL-17A ELISA kit by eBioscience and human IFN-γ ELISA MAX Deluxe by BioLegend) according to the manufacturer's instructions. Light density was measured using an Infinite M200 instrument (Tecan, Männedorf, Switzerland).

O=C(NNS(=O)(=O)c1ccccc1C(F)(F)F)c1cc2cc(Cl)ccc2o1 [Bi2, BCATc inhibitor 2]
IL-17A secretion (human CD4+ naive T cells): decreased | mRNA levels of RORC and IL17A (human CD4+ naive T cells): significantly reduced | S6K phosphorylation (mTORC1): inhibitory effect | proliferation (CFSE dilution) [1]: no effect on proliferation | IL-17A production in CD4+ memory T cells treated with statins [2]: further reduced | IFN-γ production by CD4+ memory T cells ([2]; TCR stimulation 3 days, Bi2 10 μM, JPH203 10 μM, HMB 0.4 mM, VH298 100 nM, LβhL 400 mg/L): did not affect | IL-17A production by CD4+ memory T cells ([2]; TCR stimulation 3 days, Bi2 10 μM, JPH203 10 μM, statin 10 μM, LβhL 400 mg/L): preferentially inhibited; also recorded: significantly reduced

— patent publication US20260076937A1, “COMPOSITION FOR PREVENTING OR TREATING AUTOIMMUNE DISEASES COMPRISING A BCAT1 INHIBITOR” (Seoul National University R&DB Foundation, priority 2024, published 2026)
